According to patent US6797710B2, “Heterocyclic derivatives and their use as antithrombotic agents” (Akzo Nobel N.V., priority 1997, dated 2004):
Counter-ions that a name gives are not always drawn. Like-named read-outs stand apart in the source and are kept apart here.

Assays:
[1] = in vitro; details: human, Caco-2
Protocol: (§1) In this in vitro model the transepithelial transport properties of a compound are determined in monolayers of a human intestinal cell-line (Caco-2) in terms of a permeability coefficient (apparent permeability).
(§2) Caco-2 cells were obtained from the American Type Culture Collection and were used in passage nrs 25 to 35. Cells were maintained at 37° C. in 75 cm^2 culture flasks (Nunc) in Dulbecco's Modified Eagle's Medium (DNEM) supplemented with 1% of non-essential amino acid solution (100×), 10% of heat-inactivated fetal bovine serum, penicillin (100 U/ml) and streptomycin (100 μg/ml) in an atmosphere of 95% of air and 5% of CO2. The pH of the medium was 7.4. For experiments cells were grown on Transwell-COL™ collagen treated cell culture filter inserts (Costar, Cambridge, Mass., USA) with a surface area of 0.33 cm^2 The seeding density was 6.3×10^5 cells/cm^2. Culture medium was added on each side of the filter. The growth of the cells and degree of confluency was checked every 2-3 days microscopically. Confluent monolayers were used on day 23-24 after seeding, at which time the transepithelial electrical resistance of the monolayers was at a stable value of approximately 260 Ω·cm^2. Permeability experiments were performed with compound concentrations of 0.1 mM or 1 mM in the apical compartment in Hanks' Balanced Salt Solution with or without 0.5% (w/v) of bovine serum albumin. At 1, 2 and 3 hours after addition of compound to the cells the filters were placed into fresh acceptor compartments. In this way three one-hour samples were obtained. Compound concentration was determined in samples from acceptor compartments and donor compartment by HPLC or by measuring anti-thrombin activity. Permeability experiments of each compound were performed with 4 different filters. Results shown in the Table are means of the permeability between 2 and 3 hours after the start of the experiment of at least 2 filters.

[2] = biological target: Human thrombin (Homo sapiens, UniProt P00734); experiment: Anti-thrombin assay (hydrolysis of chromogenic substrate S-2238); assay type: biochemical; details: substrate S-2238, TNP buffer pH 7.4, 37° C., read-out: Antithrombin activity: IC50
Source text: Thrombin (Factor IIa) is a factor in the coagulation cascade.
This assay for anti-thrombin activity in a buffer system was used to assess the IC50-value of a test compound.
Preparation of test and reference compound solutions
Each concentration is stepwise diluted with the vehicle to give concentrations of 10^−3, 10^−4 and 10^−5 mol·l^−1. The dilutions, including the stock solution, are used in the assay (final concentrations in the reaction mixture: 3·10^−3; 10^−3; 3·10^−4; 10^−4; 3·10^−5; 10^−5; 3·10^−6 and 10^−6 mol·l^−1, respectively).
At room temperature 0.075 ml and 0.025 ml test compound or reference compound solutions or vehicle are alternately pipetted into the wells of a microtiter plate and these solutions are diluted with 0.115 ml and 0.0165 ml TNP buffer, respectively. […] The plate is incubated (with shaking for 30 s) at 37° C.
All data are collected in an IBM personal computer using LOTUS-MEASURE. For each compound concentration (expressed in mol·l^−1 reaction mixture) and for the blank the absorbance is plotted versus the reaction time in min.
Evaluation of responses: For each final concentration the maximum absorbance was calculated from the assay plot.

[3] = biological target: Bovine Factor Xa (Bos taurus, UniProt P00743); experiment: Anti-factor Xa assay (hydrolysis of chromogenic substrate S-2222); assay type: biochemical; details: substrate S-2222, TNP buffer, 37° C.
Source text: Activated Factor X (Xa) is a factor in the coagulation cascade. […] This assay for anti-Xa activity in a buffer system was used to assess the IC50-value of the test compound.
In general the followed procedure and test conditions were analogous to those of the anti-thrombin assay as described above. Differences are indicated below.

[4] = Caco-2 permeability; details: human, Caco-2
Protocol: as §1, §2

[5] = tested on: Caco-2 cells
Protocol: as §1, §2

[6] = tested on: Caco-2 cells; experiment: Caco-2 permeability; details: 0.1 mM or 1 mM apical; mean of permeability between 2 and 3 hours, at least 2 filters
Protocol: as §1, §2

Chain of Bovine Factor Xa (P00743 41-180 limits assumed): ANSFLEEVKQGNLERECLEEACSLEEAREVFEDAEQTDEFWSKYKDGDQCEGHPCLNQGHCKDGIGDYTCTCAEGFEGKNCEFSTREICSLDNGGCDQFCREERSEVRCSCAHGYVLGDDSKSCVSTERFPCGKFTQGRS
Chain of Bovine Factor Xa (P00743 234-492 limits assumed): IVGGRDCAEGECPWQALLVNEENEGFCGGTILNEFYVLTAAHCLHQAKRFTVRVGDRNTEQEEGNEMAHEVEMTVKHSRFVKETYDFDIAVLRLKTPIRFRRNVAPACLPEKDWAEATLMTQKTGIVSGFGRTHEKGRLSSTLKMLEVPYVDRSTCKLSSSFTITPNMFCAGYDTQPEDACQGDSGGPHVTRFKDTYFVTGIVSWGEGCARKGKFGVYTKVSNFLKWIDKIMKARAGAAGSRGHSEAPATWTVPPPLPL

Cc1c(C)c(S(=O)(=O)NCC(=O)NC(Cc2ccc3c(N)nccc3c2)C(=O)N2CCCCC2)c(C)c2c1OC(C)(C)CC2.Cl (stereo not shown) [Example 5, N-[1-[(1-Amino-6-isoquinolinyl)methyl]-2-oxo-2-(1-piperidinyl)ethyl]-2-[[(3,4-dihydro-2,2,5,7,8-pentamethyl-2H-1-benzopyran-6-yl)sulfonyl]amino]acetamide hydrochloride]
Papp A→B [1]: 3.7 ×10⁻⁶ cm/s
IC50 [2]: 28 µM

COCCN(C)C(=O)C(Cc1cc2c(N)nccc2s1)NS(=O)(=O)c1ccc2ccc(OC)cc2c1 (stereo not shown) [Example 26, 3-(4-aminothieno[3,2c]pyridin-2-yl)-N-(2-methoxyethyl)-2-[[(7-methoxy-2-naphthalenyl)-sulfonyl]amino]-N-methyl-propanamide hydrochloride]
IC50 [3]: 14 µM

CC1CCN(C(=O)C(Cc2cc3c(N)nccc3s2)NS(=O)(=O)c2ccc3oc4ccccc4c3c2)CC1 (stereo not shown) [Example 32, 1-[3-(4-aminothieno[3,2c]pyridin-2-yl)-2-[[(2-dibenzofuranyl)sulfonyl]amino]-1-oxopropyl]-4-methylpiperidine hydrochloride]
IC50 [2]: 1.44 µM

Cl.Nc1nccc2cc(CC(NC(=O)CNS(=O)(=O)c3ccc4ccccc4c3)C(=O)N3CCCCC3)ccc12 (stereo not shown) [Example 2, N-[1-[(1-amino-6-isoquinolinyl)methyl]-2-oxo-2-(1-piperidinyl)ethyl]-2-[(2-naphthalenyl-sulfonyl)amino]acetamide hydrochloride]
Papp A→B [4]: 1.9 ×10⁻⁶ cm/s

Cc1c(C)c(S(=O)(=O)NNC(=O)NC(Cc2ccc3c(N)nccc3c2)C(=O)N2CCCCC2)c(C)c2c1OC(C)(C)CC2 (stereo not shown) [Example 10, 3,4-dihydro-2,2,5,7,8-pentamethyl-2H-1-benzopyran-6-ylsulfonic acid 2-[[[1-[(1-amino-6-isoquinolinyl)methyl]-2-oxo-2-(1-pineridinyl)ethyl]amino]carbonyl]hydrazide hydrochloride]
IC50 [2]: 1.1 µM

COC(=O)C(Cc1ccc2c(N)nccc2c1)NC(=O)CNS(=O)(=O)c1ccc2ccccc2c1 (stereo not shown) [Example 1, 3-(1-amino-6-isoquinolinyl)-2-[[2-[(2-naphthalenylsulfonyl)amino]acetyl]amino]propionic acid methyl ester hydrochloride]
IC50 [3]: 48 µM

CC1CCN(C(=O)C(Cc2cc3c(N)nccc3s2)NS(=O)(=O)CC23CCC(CC2=O)C3(C)C)CC1 [Example 30, 1-[3-(4-aminothieno[3,2c]pyridin-2-yl)-2-[[[1-(1R,4S)-(7,7-dimethyl-2-oxobicyclo[2,2,1]hept-1-yl)methyl]sulfonyl]amino]-1-oxopropyl]-4-methylpiperidine hydrochloride]
IC50 [2]: 35 µM

1-[3-[3-(aminoiminomethyl)phenyl]-2-[(2-naphthalenyl-sulfonyl)amino]-1-oxopropyl]-4-(methylsulfonyl)piperazine [Pefa 1286]
Caco-2 Papp (apparent permeability) [5]: 0.11 ×10⁻⁶ cm/s

COc1ccc2ccc(S(=O)(=O)NC(Cc3cc4c(N)nccc4s3)C(=O)N3CCC(C)CC3)cc2c1 (stereo not shown) [Example 18, 1-[1-(4-aminothieno[3,2c]pyridin-2-yl)-2-[[(7-methoxy-2-naphthalenyl)sulfonyl]amino]-1-oxopropyl]-4-methylpiperidine hydrochloride]
IC50 [2]: 0.53 µM

COC(=O)C(Cc1cc2c(N)nccc2s1)NC(=O)CNS(=O)(=O)c1ccc2ccccc2c1 (stereo not shown) [Example 3, 3-(4-aminothieno[3,2c]pyridin-2-yl)-2-[[2-[(2-naphthalenylsulfonyl)amino]acetyl]amino]-propionic acid methyl ester hydrochloride]
IC50 [3]: 29 µM

Cl.Nc1nccc2sc(CC(NC(=O)CNS(=O)(=O)c3ccc4ccccc4c3)C(=O)N3CCCCC3)cc12 (stereo not shown) [Example 4, N-[1-[(4-Aminothieno[3,2c]pyridin-2-yl)methyl]-2-oxo-2-(1-piperidinyl)ethyl]-2-[(2-naphthalenylsulfonyl)amino]acetamide hydrochloride]
Caco-2 Papp (apparent permeability) [6]: 2.5 ×10⁻⁶ cm/s

Nc1nccc2cc(CC(NC(=O)[C@H](CO)NS(=O)(=O)c3ccc4ccccc4c3)C(=O)N3CCCCC3)ccc12 (stereo partly drawn) [Example 7, (2S)-N-[1-[(1-amino-6-isoquinolinyl)methyl]-2-oxo-2-(1-piperidinyl)ethyl]-3-hydroxy-2-[(2-naphthalenylsulfonyl)amino]propanamide hydrochloride]
IC50 [2]: 6.8 µM
